# From paper PMC5923478 (Viruses, 2018)
# Where two headings read alike, the source gives them in different places.
# Columns and labels:
# [1] = system: ZIKV surface E antigen expression; format: cell-based, Zika virus
# [2] = system: WNV viral surface E antigen expression; format: cell-based, West Nile virus
# [3] = system: ZIKV, WNV and TBEV; assay: organism not typed; format: cell-based
# [4] = system: Vero cells; conditions: African green monkey; human
# [5] = system: ZIKV
# [6] = system: WNV
# [7] = system: TBEV
# [8] = system: Chikungunya virus; conditions: Vero cells or primary human fibroblasts; cited from earlier work
# [9] = system: Crimean-Congo hemorrhagic fever virus; conditions: cited from earlier work
# [10] = system: HCV; parameters: method as in ref 11 = [11]; conditions: Huh 7.5.1 cells, 15 µM, 24 h to 48 h; cited from earlier work
# [11] = in vitro; conditions: African green monkey
# [12] = in vitro; conditions: pig
# [13] = in vitro
# [14] = system: ZIKV; assay: microbe, parasite or virus in culture; conditions: Zika virus, Vero, 48 h
# [15] = system: WNV; assay: microbe, parasite or virus in culture; conditions: West Nile virus, Vero, 48 h
# [16] = system: TBEV; assay: microbe, parasite or virus in culture; conditions: Tick-borne encephalitis virus, Vero, 48 h
# [17] = system: ZIKV; parameters: method as in ref 24 = [24]; conditions: depending on the cultivated cells used; cited from earlier work
structure (smiles),measurement,setting,value
"CCOC(=O)c1c(CSc2ccccc2)n(C)c2cc(Br)c(O)c(CN(C)C)c12.Cl.O [arbidol, ethyl-6-bromo-4-[(dimethylamino)methyl]-5-hydroxy-1-methyl-2-[(phenylthio)methyl]-indole-3-carboxylate hydrochloride monohydrate]",ZIKV surface E antigen expression (immunofluorescence staining),[1],dose-dependent inhibition
same,WNV viral surface E antigen expression,[2],dose-dependent inhibition
same,antiviral effects in virus infected cells,[3],no antiviral effects
same,viral titer in growth curves,[3],rapid reduction of viral titer
same,EC50,"[3]; Vero, read-out: EC50 values, range over ZIKV, WNV and TBEV",10.6 to 19.2 µM
same,cytotoxicity in Vero cells lower than in Huh-7 cells,[4],about 5 times
same,EC50,[5],10.6 ± 0.74 µM
same,ZIKV replication,[5],not inhibited
same,ZIKV viral replication,[5],inhibited completely
same,reduction in ZIKV titer compared to mock-treated cells,[5],about 10^4 fold
same,EC50,[6],19.2 ± 0.29 µM
same,antiviral effects against WNV,[6],little or no antiviral effects
same,SI (CC50/EC50),[7],4.81
same,TBEV viral titer reduction compared with non-treated cells,[7],10^3 fold
same,inhibition of TBEV replication,[7],incomplete
same,EC50,[8],< 10 µg/mL
same,EC50,[9],2.8 µg/mL
same,inhibition of HCV replication,[10],up to 10^3 fold
same,CC50,[11],89.72 ± 0.19 µM
same,CC50,[12],46.8 ± 1.65 µM
same,CC50,[13],18.7 to 89.7 µM
same,CC50,"[13]; pig (PS), human (UKF-NB-4, HBCA)",24.8 to 47 µM
same,EC50,[14],12.1 ± 0.77 µM
same,EC50,[15],18.8 ± 0.21 µM
same,EC50,[16],18.67 ± 0.15 µM
CC(C)OC(=O)[C@H](C)N[P@](=O)(OC[C@H]1O[C@@H](n2ccc(=O)[nH]c2=O)[C@](C)(F)[C@@H]1O)Oc1ccccc1 [sofosbuvir],activity against ZIKV infection,[17],differentially active
